Patent US8012956B2, “Tropane compounds” (Exelixis, Inc., priority 2007, dated 2011)

biological target: HSP90 (Homo sapiens, UniProt P07900); experiment: HSP90 inhibition (HSP90 IC50); format: biochemical

| IC50 | Compound |
| --- | --- |
| 1000 to 2000 nM | COc1cccc(C(=O)N[C@H]2C[C@H]3CC[C@@H](C2)N3c2ccc(C(=O)NCCc3cccnc3)cn2)c1C [6-[3-endo-({[2-methyl-3-(methyloxy)phenyl]carbonyl}amino)-8-azabicyclo[3.2.1]oct-8-yl]-N-(2-pyridin-3-ylethyl)pyridine-3-carboxamide] |
| 1000 to 2000 nM | COc1cccc(C(=O)N[C@H]2C[C@H]3CC[C@@H](C2)N3c2ccc(C(=O)NCCc3ccncc3)cn2)c1C [6-[3-endo-({[2-methyl-3-(methyloxy)phenyl]carbonyl}amino)-8-azabicyclo[3.2.1]oct-8-yl]-N-(2-pyridin-4-ylethyl)pyridine-3-carboxamide] |
| 2000 to 10000 nM | COc1cccc(C(=O)N[C@H]2C[C@H]3CC[C@@H](C2)N3c2ccc(C(=O)Nc3cccc(C)c3)cn2)c1C [6-[3-endo-({[2-methyl-3-(methyloxy)phenyl]carbonyl}amino)-8-azabicyclo[3.2.1]oct-8-yl]-N-(3-methylphenyl)pyridine-3-carboxamide] |
| 500 to 999 nM | COc1cccc(C(=O)N[C@H]2C[C@H]3CC[C@@H](C2)N3c2ccc(C(=O)NCCCN3CCOCC3)cn2)c1C [6-[3-endo-({[2-methyl-3-(methyloxy)phenyl]carbonyl}amino)-8-azabicyclo[3.2.1]oct-8-yl]-N-(3-morpholin-4-ylpropyl)pyridine-3-carboxamide] |
| 1000 to 2000 nM | COc1cccc(C(=O)N[C@H]2C[C@H]3CC[C@@H](C2)N3c2ccc(C(=O)Nc3ccc(C)cc3)cn2)c1C [6-[3-endo-({[2-methyl-3-(methyloxy)phenyl]carbonyl}amino)-8-azabicyclo[3.2.1]oct-8-yl]-N-(4-methylphenyl)pyridine-3-carboxamide] |
| < 500 nM | COc1cccc(C(=O)N[C@H]2C[C@H]3CC[C@@H](C2)N3c2ccc(C(=O)NCc3cccnc3)cn2)c1C [6-[3-endo-({[2-methyl-3-(methyloxy)phenyl]carbonyl}amino)-8-azabicyclo[3.2.1]oct-8-yl]-N-(pyridin-3-ylmethyl)pyridine-3-carboxamide] |
| 2000 to 10000 nM | COc1cccc(C(=O)NC2CC3CCC(C2)N3c2ccc(C(=O)NCC3CCCO3)cn2)c1C (stereo not drawn) [6-[3-endo-({[2-methyl-3-(methyloxy)phenyl]carbonyl}amino)-8-azabicyclo[3.2.1]oct-8-yl]-N-(tetrahydrofuran-2-ylmethyl)pyridine-3-carboxamide] |
| < 500 nM | COc1cccc(C(=O)N[C@H]2C[C@H]3CC[C@@H](C2)N3c2ccc(C(=O)NCc3ccc(N4CCN(CC(C)C)CC4)cc3)cn2)c1C [6-[3-endo-({[2-methyl-3-(methyloxy)phenyl]carbonyl}amino)-8-azabicyclo[3.2.1]oct-8-yl]-N-({4-[4-(2-methylpropyl)piperazin-1-yl]phenyl}methyl)pyridine-3-carboxamide] |
| 2000 to 10000 nM | COc1cccc(C(=O)N[C@H]2C[C@H]3CC[C@@H](C2)N3c2ccc(C(=O)NCc3ccc(OC(F)(F)F)cc3)cn2)c1C [6-[3-endo-({[2-methyl-3-(methyloxy)phenyl]carbonyl}amino)-8-azabicyclo[3.2.1]oct-8-yl]-N-({4-[(trifluoromethyl)oxy]phenyl}methyl) pyridine-3-carboxamide] |
| < 500 nM | COc1cccc(C(=O)NC2CC3CCC(C2)N3c2ccc(C(=O)NC(C)c3ccc(N4CCNCC4)nc3)cn2)c1C (stereo not drawn) [6-[3-endo-({[2-methyl-3-(methyloxy)phenyl]carbonyl}amino)-8-azabicyclo[3.2.1]oct-8-yl]-N-[1-(6-piperazin-1-ylpyridin-3-yl)ethyl]pyridine-3-carboxamide] |
| < 500 nM | COc1cccc(C(=O)N[C@H]2C[C@H]3CC[C@@H](C2)N3c2ccc(C(=O)NC3CCN(Cc4ccccc4)CC3)cn2)c1C [6-[3-endo-({[2-methyl-3-(methyloxy)phenyl]carbonyl}amino)-8-azabicyclo[3.2.1]oct-8-yl]-N-[1-(phenylmethyl)piperidin-4-yl]pyridine-3-carboxamide] |
| 500 to 999 nM | COc1cccc(C(=O)NC2CC3CCC(C2)N3c2ccc(C(=O)NCCC3CCCN3C)cn2)c1C (stereo not drawn) [6-[3-endo-({[2-methyl-3-(methyloxy)phenyl]carbonyl}amino)-8-azabicyclo[3.2.1]oct-8-yl]-N-[2-(1-methylpyrrolidin-2-yl)ethyl]pyridine-3-carboxamide] |
| 2000 to 10000 nM | COCCNC(=O)c1ccc(N2[C@@H]3CC[C@H]2C[C@@H](NC(=O)c2cccc(OC)c2C)C3)nc1 [6-[3-endo-({[2-methyl-3-(methyloxy)phenyl]carbonyl}amino)-8-azabicyclo[3.2.1]oct-8-yl]-N-[2-(methyloxy)ethyl]pyridine-3-carboxamide] |
| 2000 to 10000 nM | COc1ccccc1NC(=O)c1ccc(N2[C@@H]3CC[C@H]2C[C@@H](NC(=O)c2cccc(OC)c2C)C3)nc1 [6-[3-endo-({[2-methyl-3-(methyloxy)phenyl]carbonyl}amino)-8-azabicyclo[3.2.1]oct-8-yl]-N-[2-(methyloxy)phenyl]pyridine-3-carboxamide] |
| 1000 to 2000 nM | COc1cccc(C(=O)N[C@H]2C[C@H]3CC[C@@H](C2)N3c2ccc(C(=O)NCCSC)cn2)c1C [6-[3-endo-({[2-methyl-3-(methyloxy)phenyl]carbonyl}amino)-8-azabicyclo[3.2.1]oct-8-yl]-N-[2-(methylthio)ethyl]pyridine-3-carboxamide] |
| 500 to 999 nM | COc1cccc(C(=O)N[C@H]2C[C@H]3CC[C@@H](C2)N3c2ccc(C(=O)NCCCN3CCCC3=O)cn2)c1C [6-[3-endo-({[2-methyl-3-(methyloxy)phenyl]carbonyl}amino)-8-azabicyclo[3.2.1]oct-8-yl]-N-[3-(2-oxopyrrolidin-1-yl)propyl]pyridine-3-carboxamide] |
| 500 to 999 nM | COc1cccc(C(=O)N[C@H]2C[C@H]3CC[C@@H](C2)N3c2ccc(C(=O)NCCCN3CCN(C)CC3)cn2)c1C [6-[3-endo-({[2-methyl-3-(methyloxy)phenyl]carbonyl}amino)-8-azabicyclo[3.2.1]oct-8-yl]-N-[3-(4-methylpiperazin-1-yl)propyl]pyridine-3-carboxamide] |
| 2000 to 10000 nM | COc1cccc(NC(=O)c2ccc(N3[C@@H]4CC[C@H]3C[C@@H](NC(=O)c3cccc(OC)c3C)C4)nc2)c1 [6-[3-endo-({[2-methyl-3-(methyloxy)phenyl]carbonyl}amino)-8-azabicyclo[3.2.1]oct-8-yl]-N-[3-(methyloxy)phenyl]pyridine-3-carboxamide] |
| 500 to 999 nM | COCCCNC(=O)c1ccc(N2[C@@H]3CC[C@H]2C[C@@H](NC(=O)c2cccc(OC)c2C)C3)nc1 [6-[3-endo-({[2-methyl-3-(methyloxy)phenyl]carbonyl}amino)-8-azabicyclo[3.2.1]oct-8-yl]-N-[3-(methyloxy)propyl]pyridine-3-carboxamide] |
| 500 to 999 nM | CCCOCCCNC(=O)c1ccc(N2[C@@H]3CC[C@H]2C[C@@H](NC(=O)c2cccc(OC)c2C)C3)nc1 [6-[3-endo-({[2-methyl-3-(methyloxy)phenyl]carbonyl}amino)-8-azabicyclo[3.2.1]oct-8-yl]-N-[3-endo-(propyloxy)propyl]pyridine-3-carboxamide] |
| 1000 to 2000 nM | COc1cccc(C(=O)N[C@H]2C[C@H]3CC[C@@H](C2)N3c2ccc(C(=O)Nc3ccc(C4CCN(C)CC4)cc3)cn2)c1C [6-[3-endo-({[2-methyl-3-(methyloxy)phenyl]carbonyl}amino)-8-azabicyclo[3.2.1]oct-8-yl]-N-[4-(1-methylpiperidin-4-yl)phenyl]pyridine-3-carboxamide] |
| < 500 nM | COc1cccc(C(=O)N[C@H]2C[C@H]3CC[C@@H](C2)N3c2ccc(C(=O)Nc3ccc(N4CCN(C)CC4)cc3)cn2)c1C [6-[3-endo-({[2-methyl-3-(methyloxy)phenyl]carbonyl}amino)-8-azabicyclo[3.2.1]oct-8-yl]-N-[4-(4-methylpiperazin-1-yl)phenyl]pyridine-3-carboxamide] |
| 500 to 999 nM | COc1ccc(NC(=O)c2ccc(N3[C@@H]4CC[C@H]3C[C@@H](NC(=O)c3cccc(OC)c3C)C4)nc2)cc1 [6-[3-endo-({[2-methyl-3-(methyloxy)phenyl]carbonyl}amino)-8-azabicyclo[3.2.1]oct-8-yl]-N-[4-(methyloxy)phenyl]pyridine-3-carboxamide] |
| 2000 to 10000 nM | COc1cccc(C(=O)NC2CC3CCC(C2)N3c2ccc(C(=O)N[C@H](C)c3ccccc3)cn2)c1C (stereo partly drawn) [6-[3-endo-({[2-methyl-3-(methyloxy)phenyl]carbonyl}amino)-8-azabicyclo[3.2.1]oct-8-yl]-N-[(1R)-1-phenylethyl]pyridine-3-carboxamide] |
| 2000 to 10000 nM | CC[C@H](C)NC(=O)c1ccc(N2C3CCC2CC(NC(=O)c2cccc(OC)c2C)C3)nc1 (stereo partly drawn) [6-[3-endo-({[2-methyl-3-(methyloxy)phenyl]carbonyl}amino)-8-azabicyclo[3.2.1]oct-8-yl]-N-[(1S)-1-methylpropyl]pyridine-3-carboxamide] |
| < 500 nM | COc1cccc(C(=O)NC2CC3CCC(C2)N3c2ccc(C(=O)N[C@@H](C)c3ccccc3)cn2)c1C (stereo partly drawn) [6-[3-endo-({[2-methyl-3-(methyloxy)phenyl]carbonyl}amino)-8-azabicyclo[3.2.1]oct-8-yl]-N-[(1S)-1-phenylethyl]pyridine-3-carboxamide] |
| 500 to 999 nM | CC[C@H](NC(=O)c1ccc(N2C3CCC2CC(NC(=O)c2cccc(OC)c2C)C3)nc1)c1ccccc1 (stereo partly drawn) [6-[3-endo-({[2-methyl-3-(methyloxy)phenyl]carbonyl}amino)-8-azabicyclo[3.2.1]oct-8-yl]-N-[(1S)-1-phenylpropyl]pyridine-3-carboxamide] |
| 500 to 999 nM | COc1cccc(C(=O)N[C@H]2C[C@H]3CC[C@@H](C2)N3c2ccc(C(=O)NCc3c(F)ccc(F)c3F)cn2)c1C [6-[3-endo-({[2-methyl-3-(methyloxy)phenyl]carbonyl}amino)-8-azabicyclo[3.2.1]oct-8-yl]-N-[(2,3,6-trifluorophenyl)methyl]pyridine-3-carboxamide] |
| 500 to 999 nM | COc1cccc(C(=O)N[C@H]2C[C@H]3CC[C@@H](C2)N3c2ccc(C(=O)NCc3cc(F)c(F)cc3F)cn2)c1C [6-[3-endo-({[2-methyl-3-(methyloxy)phenyl]carbonyl}amino)-8-azabicyclo[3.2.1]oct-8-yl]-N-[(2,4,5-trifluorophenyl)methyl]pyridine-3-carboxamide] |
